Like-named read-outs stand apart in the source and are kept apart here.
Tests used:
FADD−/− Jurkat cells = assay: Inhibition of TNF-induced programmed necrosis of FADD deficient Jurkat cells (Cell Titer-Glo viability); assay type: cell-based
From the text: (§1) The adopted biological assay protocol was: the effect of compounds on programmed necroptosis of TNF-induced FADD (Fas-Associated Death Domain) deficient Jurkat cells and L929 cells.
(§2) In order to verify the inhibitory effect of the compounds of the present invention on programmed cell necrosis at the cellular level, cell types that is closely related to the RIP1 pathway, namely FADD deficient Jurkat cells (human peripheral blood leukemia T cell strain) and L929 cells, were selected. Two different stimulation methods were used: tumor necrosis factor (TNFα) was used alone, or TNFα was used in combination with mitochondria-derived cysteine aspartate activator (SMAC) SM164. Cells viability was calculated by detecting chemiluminescence values, thereby obtaining the biological activity of the compound on the inhibition of programmed cell necrosis.
(§3) Methods: FADD deficient Jurkat cells: FADD deficient Jurkat cells (human peripheral blood leukemia T cell line) were cultured in vitro. After growing to the logarithmic growth phase, the cells were collected, centrifuged at 1000 rpm for 5 min, the supernatant was discarded, and the cell concentration was adjusted to 2.5×10^5/mL. Cells were seeded into 384-well plates, 40 μl per well. 5 μL of SM164 (50 nM) diluted in cell culture medium and 5 μL of each compound were added to the corresponding wells. After pretreatment at 37° C. for 1 h, 5 μL of TNFα (50 ng/mL) diluted in cell culture medium was added to each well of the stimulation group, and 5 μL of the culture medium was added to the control group. The plate was cultured in a cell incubator (37° C., 5% CO2) for 14 h, and […] of Cell Titer-Glo solution was added to each well, then incubated for 30 min at room temperature, and intracellular ATP level was measured by detecting luminescence. The unstimulated DMSO control wells were taken as 100% cell viability. L929 cells: The L929 cells (mouse fibroblasts) were cultured in vitro, digested and diluted to 6.25×10^4/ml, and the cells were seeded into 384-well plates, 40 μl per well. The plate was placed in a cell incubator (37° C., 5% CO2) for 12 hours. 5 μL of SM164 (500 nM) diluted in cell culture medium and 5 μL of each compound were added to the corresponding wells. After pretreatment at 37° C. for 1 h, 5 μL of TNFα (500 ng/mL) diluted in cell culture medium was added to each well of the stimulation group, and 5 μL of the culture medium was added to the control group. After the plate was cultured for 14 h in a cell incubator (37° C., 5% CO2), 15 μl of Cell Titer-Glo solution was added to each well. The plate was incubated at room temperature for 30 min, and intracellular ATP level was measured by detecting luminescence. The unstimulated DMSO control wells were taken as 100% cell viability. EC50 values of the compounds were calculated using Prism Graphpad statistical software.

L929 cells = assay: Inhibition of TNF-induced programmed necrosis of L929 cells (Cell Titer-Glo viability); assay type: cell-based, mouse
From the text: as §1, §2, §3

[1] = Homo sapiens, Jurkat, 14 h, FADD−/− Jurkat cells, stimulated with TNFα + SM164, read-out: EC50 (μM) FADD−/− Jurkat cells (human) TNFα + SM164
[2] = Homo sapiens, Jurkat, FADD−/− Jurkat cells, stimulated with TNFα alone, read-out: EC50 (μM) FADD−/− Jurkat cells (human) TNFα
[3] = Mus musculus, L929, L929 cells, stimulated with TNFα + SM164, read-out: EC50 (μM) L929 cells (mouse) TNFα + SM164
[4] = Mus musculus, L929, L929 cells, stimulated with TNFα alone, read-out: EC50 (μM) L929 cells (mouse) TNFα
[5] = FADD−/− Jurkat cells, stimulated with TNFα + SM164, read-out: EC50 (μM) FADD−/− Jurkat cells (human) TNFα + SM164
[6] = FADD−/− Jurkat cells, stimulated with TNFα alone, read-out: EC50 (μM) FADD−/− Jurkat cells (human) TNFα

| Compound | EC50 (FADD−/− Jurkat cells; [1]) [nM] | EC50 (FADD−/− Jurkat cells; [2]) [nM] | EC50 (L929 cells; [3]) [µM] | EC50 (L929 cells; [4]) [µM] | other results |
| --- | --- | --- | --- | --- | --- |
| COc1cnc2c(c1)ncn2-c1ccc(CNC(=O)c2nnn(C)c2Cc2ccccc2)cc1 [ET-0934] | 15.5 | 0.489 | 0.558 | 0.0166 | – |
| COc1ccc2ncn(-c3ccc(CNC(=O)c4nnn(C)c4Cc4ccccc4)cc3)c2n1 [ET-0935] | 0.244 | 0.0235 | 1e-06 | 1e-06 | activity of inhibition of programmed necrosis compared with GSK2982772 (FADD−/− Jurkat cells; human FADD-deficient Jurkat cells, TNFα alone or in combination with SM164): stronger activity |
| CNC(=O)c1ccc2c(c1)ncn2-c1ccc(CC(=O)NCc2c[nH]c3ccccc23)cc1 [QY-5-35, 1-(4-(2-(((1H-indole-3-yl)methyl)amino)-2-oxoethyl)phenyl)-N-methyl-1H-benzo[d]imidazol-5-formamide] | > 10000 | 2490 | > 10 | > 10 | – |
| CNC(=O)c1ccc2c(c1)ncn2-c1ccc(CC(=O)N(C)Cc2cc(F)cc(F)c2F)cc1 [QY-5-40, N-methyl-1-(4-(2-(methyl(2,3,5-trifluorobenzyl)amino)-2-oxoethyl)phenyl)-1H-benzo[d]imidazol-5-formamide] | > 10000 | 2500 | > 10 | 5 | – |
| CNC(=O)c1ccc2c(c1)ncn2-c1ccc(CC(=O)N(O)Cc2ccccc2)cc1 [QY-5-62, 1-(4-(2-(benzyl(hydroxy)amino)-2-oxoethyl)phenyl)-N-methyl-1H-benzo[d]imidazol-5-formamide] | – | – | > 10 | 3.81 | EC50 (FADD−/− Jurkat cells; Homo sapiens, Jurkat, 14 h, read-out: EC50 (μM) FADD−/− Jurkat cells (human) TNFα + SM164): 98 nM; EC50 (FADD−/− Jurkat cells; Homo sapiens, Jurkat, read-out: EC50 (μM) FADD−/− Jurkat cells (human) TNFα): 4.98 nM |
| CNC(=O)c1ccc2c(c1)ncn2-c1ccc(NC(=O)c2nocc2Cc2ccccc2)cc1 [QY-6-15] | > 10000 | 1370 | > 10 | > 10 | – |
| CNC(=O)c1ccc2c(c1)ncn2-c1ccc(CNC(=O)c2cc(Cc3ccccc3)n(C)n2)cc1 [QY-7-2B, 1-(4-((5-benzyl-1-methyl-1H-pyrazole-3-carboxamido)methyl)phenyl)-N-methyl-1H-benzo[d]imidazol-5-carboxamide] | 43.9 | 5.12 | 2.02 | 0.312 | – |
| CNC(=O)c1ccc2c(c1)ncn2-c1ccc(CNC(=O)c2nnc(Cc3ccccc3)o2)cc1 [QY-7-32, 5-Benzyl-N-(4-(5-(methylcarbamoyl)-1H-benzo[d]imidazol-1-yl)benzyl)-1,3,4-oxadiazol-2-carboxamide] | 1520 | 185 | > 10 | > 10 | – |
| CNC(=O)c1ccc2c(c1)ncn2-c1ccc(CC(=O)N2CCCC2c2ccccc2)cc1 (stereo not drawn) [QY-7-65, N-methyl-1-(4-(2-oxo-2-(2-phenylpyrrolidin-1-yl)ethyl)phenyl)-1H-benzo[d]imidazol-5-carboxamide] | > 10000 | > 10000 | > 10 | > 10 | – |
| Nc1ncnc2c1ccn2-c1ccc(CNC(=O)c2ncc(Cc3ccccc3)o2)cc1 [QY-8-30, N-(4-(4-amino-7H-pyrrolo[2,3-d]pyrimidine-7-yl)benzyl)-5-benzyloxazol-2-carboxamide] | 13 | 11.2 | 6.3 | 0.829 | – |
| Cn1nc(C(=O)NCc2ccc(-n3cnc4c(N)ncnc43)cc2)cc1Cc1ccccc1 [QY-8-31] | – | – | – | – | EC50 (FADD−/− Jurkat cells; [5]): 7400 nM; EC50 (FADD−/− Jurkat cells; [6]): 1300 nM; EC50 (L929 cells; L929 cells, stimulated with TNFα + SM164, read-out: EC50 (μM) L929 cells (mouse) TNFα + SM164): > 10 µM; EC50 (L929 cells; L929 cells, stimulated with TNFα alone, read-out: EC50 (μM) L929 cells (mouse) TNFα): > 10 µM |
| CNC(=O)c1ccc2c(c1)ncn2-c1ccc(CC(=O)NC(C)(C)C(=O)N2CCCC2c2ccc(C)cc2)cc1 (stereo not drawn) [QY-8-42] | > 10000 | > 10000 | > 10 | > 10 | – |
| CNC(=O)c1ccc2c(cnn2-c2ccc(CNC(=O)c3cnn(C)c3Cc3ccccc3)cc2)c1 [QY-11-104] | 48.4 | 4.43 | – | – | – |
| COc1ccc2c(c1)ncn2-c1ccc(CNC(=O)c2cnn(C)c2Cc2ccccc2)cc1 [QY-12-4] | – | – | – | – | EC50 (FADD−/− Jurkat cells; [5]): 128 nM; EC50 (FADD−/− Jurkat cells; [6]): 17.6 nM |
| C[C@H](NC(=O)c1nnn(C)c1Cc1ccccc1)c1ccc(-n2cnc3c(N)ncnc32)cc1 [QY-13-50] | 0.001 | 0.001 | – | – | – |
| Nc1ncnc2c1ncn2-c1ccc(CNC(=O)c2cncn2Cc2ccccc2)cc1 [ZSQ-21-14] | > 10000 | 290 | – | – | – |

From patent US20230331707A1, “PROGRAMMED CELL NECROSIS INHIBITOR, PREPARATION METHOD THEREFOR, AND USE THEREOF” (Shanghai Institute of Organic Chemistry, Chinese Academy of …, priority 2020, published 2023)
